Measurements taken from article PMC7587356, “High-Throughput Screening for Inhibitors of the SARS-CoV-2 Protease Using a FRET-Biosensor” (Molecules, 2020).
Counter-ions that a name gives are not always drawn. Like-named read-outs stand apart in the source and are kept apart here.

Molecular target: SARS-CoV-2 3CLpro (Severe acute respiratory syndrome coronavirus 2, UniProt P0DTD1)
Assay: biochemical
Assay type: biochemical
Parameters: Replicate_1 / Replicate_2 / mean / mean (LOPAC_screen_w_protease): unit not given here
Settings: for mean (LOPAC screen with protease) / Replicate_1 (LOPAC screen with protease) / Replicate_2 (LOPAC screen with protease): primary screen at 5 µM; for inhibition at 5 µM: 4 h
[1] = LOPAC1280 primary screen with protease, 5 µM compound, mean of the two replicates
[2] = LOPAC1280 primary screen with protease, 5 µM compound, replicate 1
[3] = LOPAC1280 primary screen with protease, 5 µM compound, replicate 2
[4] = sheet LOPAC_screen_w_protease, mean of two replicates
[5] = sheet LOPAC_screen_w_protease, replicate 1
[6] = sheet LOPAC_screen_w_protease, replicate 2
[7] = sheet LOPAC_screen_w_protease, LOPAC1280 primary screen at 5 µM, with protease, mean of the two replicates
[8] = sheet LOPAC_screen_w_protease, LOPAC1280 primary screen at 5 µM, with protease, replicate 1
[9] = sheet LOPAC_screen_w_protease, LOPAC1280 primary screen at 5 µM, with protease, replicate 2
[10] = LOPAC1280 primary screen with protease, 5 µM compound, replicate 1, read-out: Replicate_1 (LOPAC_screen_w_protease)
[11] = LOPAC1280 primary screen with protease, 5 µM compound, replicate 2, read-out: Replicate_2 (LOPAC_screen_w_protease)
[12] = LOPAC1280 primary screen with protease, 5 µM compound, mean of two replicates
[13] = sheet LOPAC_screen_w_protease, LOPAC1280 at 5 µM, mean of two replicates, read-out: mean
[14] = sheet LOPAC_screen_w_protease, LOPAC1280 at 5 µM, replicate 1, read-out: Replicate_1
[15] = sheet LOPAC_screen_w_protease, LOPAC1280 at 5 µM, replicate 2, read-out: Replicate_2
[16] = sheet LOPAC_screen_w_protease, primary screen of LOPAC1280 at 5 µM with protease, mean of the two replicates
[17] = sheet LOPAC_screen_w_protease, primary screen of LOPAC1280 at 5 µM with protease, replicate 1
[18] = sheet LOPAC_screen_w_protease, primary screen of LOPAC1280 at 5 µM with protease, replicate 2
[19] = sheet LOPAC_screen_w_protease, primary screen with protease, mean of two replicates
[20] = sheet LOPAC_screen_w_protease, primary screen with protease, replicate 1
[21] = sheet LOPAC_screen_w_protease, primary screen with protease, replicate 2
[22] = sheet LOPAC_screen_w_protease, primary screen with protease, 5 µM, mean of two replicates, read-out: mean
[23] = sheet LOPAC_screen_w_protease, primary screen with protease, 5 µM, replicate 1, read-out: Replicate_1
[24] = sheet LOPAC_screen_w_protease, primary screen with protease, 5 µM, replicate 2, read-out: Replicate_2
[25] = sheet LOPAC_screen_w_protease, primary screen with protease, 5 µM, mean of two replicates
[26] = sheet LOPAC_screen_w_protease, primary screen with protease, 5 µM, replicate 1
[27] = sheet LOPAC_screen_w_protease, primary screen with protease, 5 µM, replicate 2
[28] = sheet LOPAC_screen_w_protease, primary screen with protease, compound at 5 µM, mean of two replicates
[29] = sheet LOPAC_screen_w_protease, primary screen with protease, compound at 5 µM, replicate 1
[30] = sheet LOPAC_screen_w_protease, primary screen with protease, compound at 5 µM, replicate 2
[31] = sheet LOPAC_screen_w_protease, LOPAC1280 at 5 µM, mean of two replicates
[32] = sheet LOPAC_screen_w_protease, LOPAC1280 at 5 µM, replicate 1
[33] = sheet LOPAC_screen_w_protease, LOPAC1280 at 5 µM, replicate 2

Compound: CC(C)Cn1c(=O)n(C)c(=O)c2[nH]cnc21 [3-Isobutyl-1-methylxanthine]
- mean (LOPAC_screen_w_protease) [1]: 2.03
- Replicate_1 (LOPAC_screen_w_protease) [2]: -0.07674
- Replicate_2 (LOPAC_screen_w_protease) [3]: 4.138

Compound: COc1ccc2c(c1)[C@@]13CCCC[C@H]1[C@@H](C2)NCC3.Cl [3-Methoxy-morphanin hydrochloride]
- Replicate_1: 3.105
- Replicate_2: 3.489
- mean: 3.297

Compound: Nc1c[n+](N2CCOCC2)no1.[Cl-] [3-Morpholinosydnonimine hydrochloride]
- mean (LOPAC screen with protease) [4]: 21.789
- Replicate_1 (LOPAC screen with protease) [5]: 21.9907
- Replicate_2 (LOPAC screen with protease) [6]: 21.5874

Compound: O=C(O)CC[N+](=O)[O-] [3-Nitropropionic acid]
- inhibition at 5 µM (sheet LOPAC_screen_w_protease, primary screen of LOPAC1280 at 5 µM with protease, mean of the two replicates, read-out: mean): 3.54%
- inhibition at 5 µM (sheet LOPAC_screen_w_protease, primary screen of LOPAC1280 at 5 µM with protease, replicate 1, read-out: Replicate_1): 2.8%
- inhibition at 5 µM (sheet LOPAC_screen_w_protease, primary screen of LOPAC1280 at 5 µM with protease, replicate 2, read-out: Replicate_2): 4.28%

Compound: Cl.NCC#Cc1ccccc1 [3-Phenylpropargylamine hydrochloride]
- mean [7]: 0.744
- Replicate_1 [8]: 1.313
- Replicate_2 [9]: 0.1753

Compound: CN1[C@@H]2CC[C@H]1C[C@@H](OC(=O)c1cc(Cl)cc(Cl)c1)C2 [3-Tropanyl-3,5-dichlorobenzoate]
- inhibition at 5 µM [10]: 2.08%
- inhibition at 5 µM [11]: 0.785%
- mean (LOPAC_screen_w_protease) [12]: 1.4299

Compound: NC(=O)c1cccc(N)c1 [3-aminobenzamide]
- inhibition at 5 µM [13]: 1.28%
- inhibition at 5 µM [14]: 1.05%
- inhibition at 5 µM [15]: 1.51%

Compound: Nc1nccc2c1ncn2[C@@H]1O[C@H](CO)[C@@H](O)[C@H]1O [3-deazaadenosine]
- mean [16]: 3.161
- Replicate_1 [17]: 4.639
- Replicate_2 [18]: 1.683

Compound: CCCn1c(=O)[nH]c(=O)c2nc[nH]c21 [3-n-Propylxanthine]
- mean [19]: 2.529
- Replicate_1 [20]: 1.492
- Replicate_2 [21]: 3.5659

Compound: Nc1ccc2c3c(cccc13)C(=O)NC2=O [4-Amino-1,8-naphthalimide]
- mean (LOPAC screen with protease) [4]: 6.555
- Replicate_1 (LOPAC screen with protease) [5]: 8.124
- Replicate_2 (LOPAC screen with protease) [6]: 4.986

Compound: N=C(N)c1ccc(N)cc1 [4-Aminobenzamidine dihydrochloride]
- inhibition at 5 µM [22]: -0.229%
- inhibition at 5 µM [23]: 1.52%
- inhibition at 5 µM [24]: -1.98%

Compound: Nc1ccncc1 [4-Aminopyridine]
- inhibition at 5 µM [22]: -0.189%
- inhibition at 5 µM [23]: 0.392%
- inhibition at 5 µM [24]: -0.771%

Compound: C[C@]12CCC(=O)C(O)=C1CC[C@@H]1[C@@H]2CC[C@]2(C)C(=O)CC[C@@H]12 [4-Androsten-4-ol-3,17-dione]
- mean [25]: 0.2033
- Replicate_1 [26]: 1.5144
- Replicate_2 [27]: -1.108

Compound: C[C@]12CCC(=O)C=C1CC[C@@H]1[C@@H]2CC[C@]2(C)C(=O)CC[C@@H]12 [4-Androstene-3,17-dione]
- inhibition at 5 µM (read-out: Replicate_1): 0.757%
- inhibition at 5 µM (read-out: Replicate_2): 1.66%
- inhibition at 5 µM (read-out: mean): 1.21%

Compound: C[N+]1(C)CCC(OC(=O)C(c2ccccc2)c2ccccc2)CC1.[I-] [4-DAMP methiodide]
- mean [19]: 2.136
- Replicate_1 [20]: 2.4758
- Replicate_2 [21]: 1.796

Compound: COc1cc(CC(=O)O)ccc1O [4-Hydroxy-3-methoxyphenylacetic acid]
- mean [25]: 0.06748
- Replicate_1 [26]: 3.737
- Replicate_2 [27]: -3.602

Compound: NNC(=O)c1ccc(O)cc1 [4-Hydroxybenzhydrazide]
- mean [28]: 2.583
- Replicate_1 [29]: 1.695
- Replicate_2 [30]: 3.47

Compound: Cl.NCCc1ccc(O)cc1 [4-Hydroxyphenethylamine hydrochloride]
- mean [7]: 0.878
- Replicate_1 [8]: 0.5582
- Replicate_2 [9]: 1.1978

Compound: O=C(O)C=Cc1c[nH]cn1 [4-Imidazoleacrylic acid]
- mean [31]: 0.9588
- Replicate_1 [32]: 1.559
- Replicate_2 [33]: 0.3591

Compound: Cl.OCc1c[nH]cn1 [4-Imidazolemethanol hydrochloride]
- mean [31]: 1.065
- Replicate_1 [32]: 2.558
- Replicate_2 [33]: -0.4285

Compound: Cc1cn[nH]c1.Cl [4-Methylpyrazole hydrochloride]
- mean (sheet LOPAC_screen_w_protease, LOPAC1280 primary screen with protease, 5 µM compound, mean of the two replicates): 4.54
- Replicate_2 (sheet LOPAC_screen_w_protease, LOPAC1280 primary screen with protease, 5 µM compound, replicate 2): 6.559

Compound: N#Cc1c(-c2ccccc2)no[n+]1[O-] [4-Phenyl-3-furoxancarbonitrile]
- mean [28]: 2.827
- Replicate_1 [29]: 3.156
- Replicate_2 [30]: 2.497

Compound: Nc1ncnc2c1ncn2[C@@H]1O[C@H](C(=O)NC2CC2)[C@@H](O)[C@H]1O [5'-(N-Cyclopropyl)carboxamidoadenosine]
- mean (LOPAC_screen_w_protease) [12]: 1.624
- Replicate_1 (LOPAC_screen_w_protease) [2]: 1.713
- Replicate_2 (LOPAC_screen_w_protease) [3]: 1.536

Compound: CCNC(=O)[C@H]1O[C@@H](n2cnc3c(N)ncnc32)[C@H](O)[C@@H]1O [5'-N-Ethylcarboxamidoadenosine]
- mean (LOPAC_screen_w_protease) [1]: 1.81
- Replicate_1 (LOPAC_screen_w_protease) [2]: 1.565
- Replicate_2 (LOPAC_screen_w_protease) [3]: 2.055

Compound: CNC(=O)[C@H]1O[C@@H](n2cnc3c(N)ncnc32)[C@H](O)[C@@H]1O [5'-N-Methyl carboxamidoadenosine]
- mean [16]: 3.814
- Replicate_1 [17]: 3.632
- Replicate_2 [18]: 3.996

Compound: CC1(C)CCC=[N+]1[O-] [5,5-Dimethyl-1-pyrroline-N-oxide]
- mean [31]: 1.097
- Replicate_1 [32]: 0.9422
- Replicate_2 [33]: 1.253

Compound: O=C1NC(=O)C(c2ccccc2)(c2ccccc2)N1 [5,5-Diphenylhydantoin]
- inhibition at 5 µM [13]: 1.1%
- inhibition at 5 µM [14]: 1.83%
- inhibition at 5 µM [15]: 0.367%

Compound: O=C(O)c1cc(=O)c2c(Cl)cc(Cl)cc2[nH]1 [5,7-Dichlorokynurenic acid]
- mean [16]: 3.519
- Replicate_1 [17]: 3.053
- Replicate_2 [18]: 3.985

Compound: CN(C)c1nc(N)c(C(=O)NC(=N)N)nc1Cl [5-(N,N-Dimethyl)amiloride hydrochloride]
- inhibition at 5 µM [10]: 1.67%
- inhibition at 5 µM [11]: 1.33%
- mean (LOPAC_screen_w_protease) [12]: 1.502

Compound: N=C(N)NC(=O)c1nc(Cl)c(N2CCCCCC2)nc1N [5-(N,N-hexamethylene)amiloride]
- mean [19]: 2.452
- Replicate_1 [20]: 2.2643
- Replicate_2 [21]: 2.64

Compound: CCN(c1nc(N)c(C(=O)NC(=N)N)nc1Cl)C(C)C [5-(N-Ethyl-N-isopropyl)amiloride]
- inhibition at 5 µM [13]: 1.01%
- inhibition at 5 µM [14]: 1.63%
- inhibition at 5 µM [15]: 0.388%

Compound: CC(C)CN(C)c1nc(N)c(C(=O)N=C(N)N)nc1Cl [5-(N-Methyl-N-isobutyl)amiloride]
- inhibition at 5 µM (sheet LOPAC_screen_w_protease, LOPAC1280 primary screen at 5 µM, with protease, mean of the two replicates, read-out: mean): 0.449%
- inhibition at 5 µM (sheet LOPAC_screen_w_protease, LOPAC1280 primary screen at 5 µM, with protease, replicate 1, read-out: Replicate_1): 0.238%
- inhibition at 5 µM (sheet LOPAC_screen_w_protease, LOPAC1280 primary screen at 5 µM, with protease, replicate 2, read-out: Replicate_2): 0.66%

Compound: Cl.NCCCCC(=O)O [5-Aminovaleric acid hydrochloride]
- mean [25]: 0.3592
- Replicate_1 [26]: 0.7789
- Replicate_2 [27]: -0.06046

Compound: O=c1[nH]c(=O)n([C@H]2C[C@H](O)[C@@H](CO)O2)cc1Br [5-Bromo-2'-deoxyuridine]
- inhibition at 5 µM [10]: 1.74%
- inhibition at 5 µM [11]: 1.06%
- mean (LOPAC_screen_w_protease) [12]: 1.398

Compound: NCCc1c[nH]c2ccc(C(N)=O)cc12.O=C(O)/C=C\C(=O)O [5-Carboxamidotryptamine maleate]
- mean (LOPAC_screen_w_protease) [1]: 1.776
- Replicate_1 (LOPAC_screen_w_protease) [2]: 2.928
- Replicate_2 (LOPAC_screen_w_protease) [3]: 0.6229

Compound: O=C(O)c1cc2cc(F)ccc2[nH]1 [5-Fluoroindole-2-carboxylic acid]
- inhibition at 5 µM [22]: -0.381%
- inhibition at 5 µM [23]: 0.54%
- inhibition at 5 µM [24]: -1.3%
